{"source": "patent EP1541166B1", "about": "“Preventing cell death using segments of neural thread proteins” (NYMOX CORPORATION, priority 2001, dated 2007)", "system": "live tissue containing AD7C-NTP", "assay": "Prevention/inhibition of AD7C-NTP-induced necrosis of live tissue by Harlil sequences injected with AD7C-NTP into rats, histopathology", "assay_type": "in vivo", "settings": "injected together with AD7C-NTP 100 ng/mL-10 µg/mL, 24 hours, compared to control samples injected with AD7C-NTP alone", "method": "AD7C-NTP was obtained as described above in Example 1.\nThe Harlil sequences NTP-1, NTP-3, and NTP-7 prepared in accordance with Example 2 above were used in this example.\nRecombinant AD7C-NTP samples 100 ng/mL-10 µg/mL were incubated at room temperature for 5 minutes to one hour with the aforementioned Harlil sequences and then injected into rats as described in Example 1.\nAlternatively, a solution of the Harlil sequence was made up in concentrations ranging from 1 microgram/mL to 1 milligram/mL. Solutions containing the recombinant AD7C-NTP also were made up as described above, without the addition of the Harlil sequence. The animals were injected with about 100 microliters of the AD7C-NTP solution, and with about 100 microliters of the Harlil solution.\nThe 24 individual foci of infiltration were excised, fixed in 10% formalin, embedded in paraffin, and stained and examined by standard histopathological methods.\nSimilar groups of control rats were injected with (1) AD7C-NTP alone as described in Example 1, (2) bovine serum albumin in saline, (3) normal human serum, and (4) physiological saline, and examined and sacrificed as above, with the excised foci of injection treated as above.", "data": [{"substance": "L H A R L C L A N F C G R N R V (LHARLCLANFCGRNRV) [NTP-1]", "values": [{"measurement": "reduction in tissue necrosis", "value": "over 95%"}]}]}
